Data as given in patent US20080200442A1, “Compositions and Methods for Treating, Reducing, Ameliorating, or Preventing Infections of the Ear or Upper Respiratory Tract” (priority 2007, published 2008).
Values after ≈ are worked out from the molar mass of the structure shown.

How the values were obtained:
Format in all cases: cell-based
[1] = tested on: Gentamycin-resistant Pseudomonas aeruginosa; assay: In vitro anti-bacterial activity (MIC90), ophthalmologic clinical bacteria isolates
Corynebacterium species = assay: as above; conditions: Gram-positive
Haemophilus influenzae = assay: as above; conditions: Gram-negative
Pseudomonas aeruginosa = assay: as above; conditions: Gram-negative
Moraxella species = assay: as above; conditions: Gram-negative
Streptococcus pneumoniae = assay: as above; conditions: Gram-positive
[2] = tested on: Gentamycin-resistant Staphylococcus aureus; assay: as above
[3] = tested on: Ofloxacin-resistant Staphylococcus aureus; assay: as above
[4] = tested on: Coagulase-negative Staphylococcus; assay: as above; conditions: Gram-positive
Propionibacterium acnes = assay: as above; conditions: Cutibacterium acnes, Gram-positive
Staphylococcus aureus = assay: as above; conditions: Gram-positive
[5] = tested on: Penicillin-resistant Streptococcus pneumoniae; assay: as above
[6] = tested on: Propionibacterium acnes (ATCC 6919); assay: In vitro anti-bacterial activity (MIC90), anaerobic reference bacteria; conditions: Cutibacterium acnes, ATCC6919
[7] = tested on: Staphylococcus aureus (FDA 209P); assay: In vitro anti-bacterial activity (MIC90), Gram-positive reference strains; conditions: FDA209P
Procedure: (§1) Anti-bacterial activity of the compound having Formula III was tested against several Gram-negative reference bacteria strains and compared to the anti-bacterial activity of three commercially available antibiotics (nadifloxacin, ofloxacin, and sparfloxacin). The results are shown in Table 2 as MIC90 values (minimum concentration of the active compound required to inhibit ninety percent of the growth of a specified pathogen, in μg/ml). Anti-bacterial activity of the compound having Formula III was tested against several Gram-positive reference bacteria strains and compared to the anti-bacterial activity of three commercially available antibiotics (nadifloxacin, ofloxacin, and sparfloxacin).

[8] = tested on: Streptococcus pyogenes (IID 698); assay: as above; conditions: IID698
Procedure: as §1

[9] = tested on: Streptococcus faecalis (ATCC 29212); assay: as above; conditions: Enterococcus faecalis, ATCC29212
Procedure: as §1

[10] = tested on: Streptococcus faecalis (IFO 12964); assay: as above; conditions: Enterococcus faecalis, IFO12964
Procedure: as §1

[11] = tested on: Streptococcus pyogenes (Cook); assay: as above
Procedure: as §1

[12] = tested on: Bacillis subtilis (ATCC 6633); assay: as above
Procedure: as §1

[13] = tested on: Streptococcus pneumoniae (IID 553); assay: as above; conditions: IID553
Procedure: as §1

[14] = tested on: Sarcina lutea (ATCC 9341); assay: as above; conditions: Micrococcus luteus, ATCC9341
Procedure: as §1

[15] = tested on: Streptococcus pneniae (IID 554); assay: as above; conditions: IID554
Procedure: as §1

[16] = tested on: Staphylococcus epidermidis (ATCC 12228); assay: as above; conditions: ATCC12228
Procedure: as §1

[17] = tested on: Staphylococcus aureus (Smith); assay: as above
Procedure: as §1

[18] = tested on: Staphylococcus aureus (ATCC 25933); assay: as above; conditions: ATCC25933
Procedure: as §1

[19] = tested on: Peptostreptococcus micros (GIFU 7824); assay: In vitro anti-bacterial activity (MIC90), anaerobic reference bacteria; conditions: Parvimonas micra
[20] = tested on: Clostridium perfringens (KZ 210); assay: microbe, parasite or virus in culture
[21] = tested on: Salmonella typhimurium (TD); assay: In vitro anti-bacterial activity (MIC90), Gram-negative reference strains
Procedure: Anti-bacterial activity of the compound having Formula III was tested against several Gram-negative reference bacteria strains and compared to the anti-bacterial activity of three commercially available antibiotics (nadifloxacin, ofloxacin, and sparfloxacin).

[22] = tested on: Bacteroides vulgatus (GAI 0673); assay: In vitro anti-bacterial activity (MIC90), anaerobic reference bacteria; conditions: Phocaeicola vulgatus
[23] = tested on: Bacteroides fragillis (GAI 0675); assay: as above
[24] = tested on: Propionibacterium acnes (ATCC 11828); assay: as above; conditions: Cutibacterium acnes, ATCC11828
[25] = tested on: Staphylococcus aureus (ATCC 33593); assay: In vitro anti-bacterial activity (MIC90), methicillin-resistant Staphylococcus aureus isolates; conditions: ATCC33593; methicillin-resistant Staphylococcus aureus (ATCC 33593)
Procedure: (§2) Anti-bacterial activity of the compound having Formula III was tested against several Gram-negative reference bacteria strains and compared to the anti-bacterial activity of three commercially available antibiotics (nadifloxacin, ofloxacin, and sparfloxacin). The results are shown in Table 2 as MIC90 values (minimum concentration of the active compound required to inhibit ninety percent of the growth of a specified pathogen, in μg/ml).
(§3) Anti-bacterial activity of the compound having Formula III was tested against some methicillin-resistant Staphylococcus aureus bacteria strains and compared to the anti-bacterial activity of three commercially available antibiotics (nadifloxacin, ofloxacin, and sparfloxacin).

[26] = tested on: Staphylococcus aureus (No. 421); assay: as above; conditions: methicillin-resistant Staphylococcus aureus (No. 421)
Procedure: as §2, §3

[27] = tested on: Staphylococcus aureus (No. 419); assay: as above; conditions: methicillin-resistant Staphylococcus aureus (No. 419)
Procedure: as §2, §3

[28] = tested on: Staphylococcus aureus (ATCC 33592); assay: as above; conditions: ATCC33592; methicillin-resistant Staphylococcus aureus (ATCC 33592)
Procedure: as §2, §3

[29] = tested on: Staphylococcus aureus (No. 415); assay: as above; conditions: methicillin-resistant Staphylococcus aureus (No. 415)
Procedure: as §2, §3

[30] = tested on: Staphylococcus aureus (No. 420); assay: as above; conditions: methicillin-resistant Staphylococcus aureus (No. 420)
Procedure: as §2, §3

[31] = tested on: Staphylococcus aureus (ATCC 33591); assay: as above; conditions: ATCC33591; methicillin-resistant Staphylococcus aureus (ATCC 33591)
Procedure: as §2, §3

[32] = tested on: Staphylococcus aureus (No. 395); assay: as above; conditions: methicillin-resistant Staphylococcus aureus (No. 395)
Procedure: as §2, §3

[33] = tested on: Veillonella parvula (GAI 5602); assay: In vitro anti-bacterial activity (MIC90), anaerobic reference bacteria
[34] = tested on: Peptostreptococcus magnum (GAI 0664); assay: as above
[35] = tested on: Propionibacterium acnes (GAI 5419); assay: as above; conditions: Cutibacterium acnes
[36] = tested on: Bacteroides thetaiotaomicron (GAI 0659); assay: as above; conditions: Bacteroides thetaiotaomicron

CCn1cc(C(=O)O)c(=O)c2cc(F)c(N3CCNCC3)cc21 [Norfloxacin]
MIC90 [1]: 128 µg/mL (≈ 401 µM)
MIC90 (Corynebacterium species): 16 µg/mL (≈ 50.1 µM)
MIC90 (Haemophilus influenzae): ≤ 0.06 µg/mL
MIC90 (Pseudomonas aeruginosa): 4 µg/mL (≈ 12.5 µM)
MIC90 (Moraxella species): 0.25 µg/mL (≈ 0.783 µM)
MIC90 (Streptococcus pneumoniae): 8 µg/mL (≈ 25.1 µM)
MIC90 [2]: 128 µg/mL (≈ 401 µM)
MIC90 [3]: > 128 µg/mL
MIC90 [4]: 128 µg/mL (≈ 401 µM)
MIC90 (Propionibacterium acnes): 4 µg/mL (≈ 12.5 µM)
MIC90 (Staphylococcus aureus): > 128 µg/mL
MIC90 [5]: 8 µg/mL (≈ 25.1 µM)

CC1COc2c(N3CCN(C)CC3)c(F)cc3c(=O)c(C(=O)O)cn1c23 (centres unmarked) [Ofloxacin]
MIC90 [6]: 0.78 µg/mL (≈ 2.16 µM)
MIC90 [7]: 0.2 µg/mL (≈ 0.553 µM)
MIC90 [8]: 0.39 µg/mL (≈ 1.08 µM)
MIC90 [9]: 1.56 µg/mL (≈ 4.32 µM)
MIC90 [10]: 1.56 µg/mL (≈ 4.32 µM)
MIC90 [11]: 0.78 µg/mL (≈ 2.16 µM)
MIC90 [12]: 0.05 µg/mL (≈ 0.138 µM)
MIC90 [13]: 1.56 µg/mL (≈ 4.32 µM)
MIC90 [14]: 3.13 µg/mL (≈ 8.66 µM)
MIC90 [15]: 1.56 µg/mL (≈ 4.32 µM)
MIC90 [16]: 0.78 µg/mL (≈ 2.16 µM)
MIC90 [17]: 0.2 µg/mL (≈ 0.553 µM)
MIC90 [18]: 0.39 µg/mL (≈ 1.08 µM)
MIC90 [1]: 64 µg/mL (≈ 177 µM)
MIC90 [19]: 0.78 µg/mL (≈ 2.16 µM)
MIC90 (Corynebacterium species): 32 µg/mL (≈ 88.6 µM)
MIC90 (Haemophilus influenzae): ≤ 0.06 µg/mL
MIC90 (Pseudomonas aeruginosa): 4 µg/mL (≈ 11.1 µM)
MIC90 (Moraxella species): 0.13 µg/mL (≈ 0.36 µM)
MIC90 [20]: 0.78 µg/mL (≈ 2.16 µM)
MIC90 [21]: 0.05 mμg/mL
MIC90 [22]: 3.13 µg/mL (≈ 8.66 µM)
MIC90 (Streptococcus pneumoniae): 2 µg/mL (≈ 5.53 µM)
MIC90 [23]: 1.56 µg/mL (≈ 4.32 µM)
MIC90 [2]: 128 µg/mL (≈ 354 µM)
MIC90 [3]: > 128 µg/mL
MIC90 [24]: 1.56 µg/mL (≈ 4.32 µM)
MIC90 [25]: 0.2 µg/mL (≈ 0.553 µM)
MIC90 [26]: 1.56 µg/mL (≈ 4.32 µM)
MIC90 [27]: 3.13 µg/mL (≈ 8.66 µM)
MIC90 [28]: 0.39 µg/mL (≈ 1.08 µM)
MIC90 [29]: 0.78 µg/mL (≈ 2.16 µM)
MIC90 [30]: 1.56 µg/mL (≈ 4.32 µM)
MIC90 [31]: 0.05 µg/mL (≈ 0.138 µM)
MIC90 [32]: 0.2 µg/mL (≈ 0.553 µM)
MIC90 [4]: 8 µg/mL (≈ 22.1 µM)
MIC90 [33]: 0.39 µg/mL (≈ 1.08 µM)
MIC90 [34]: 0.39 µg/mL (≈ 1.08 µM)
MIC90 [35]: 0.78 µg/mL (≈ 2.16 µM)
MIC90 (Propionibacterium acnes): 1 µg/mL (≈ 2.77 µM)
MIC90 (Staphylococcus aureus): 32 µg/mL (≈ 88.6 µM)
MIC90 [36]: 3.13 µg/mL (≈ 8.66 µM)
MIC90 [5]: 2 µg/mL (≈ 5.53 µM)

C[C@@H]1CN(c2c(F)c(N)c3c(=O)c(C(=O)O)cn(C4CC4)c3c2F)C[C@H](C)N1 [Sparfloxacin]
MIC90 [6]: 0.39 µg/mL (≈ 0.994 µM)
MIC90 [7]: 0.024 µg/mL (≈ 0.0612 µM)
MIC90 [8]: 0.2 µg/mL (≈ 0.51 µM)
MIC90 [9]: 0.39 µg/mL (≈ 0.994 µM)
MIC90 [10]: 0.78 µg/mL (≈ 1.99 µM)
MIC90 [11]: 0.39 µg/mL (≈ 0.994 µM)
MIC90 [12]: 0.024 µg/mL (≈ 0.0612 µM)
MIC90 [13]: 0.39 µg/mL (≈ 0.994 µM)
MIC90 [14]: 1.56 µg/mL (≈ 3.98 µM)
MIC90 [15]: 0.39 µg/mL (≈ 0.994 µM)
MIC90 [16]: 0.2 µg/mL (≈ 0.51 µM)
MIC90 [17]: 0.05 µg/mL (≈ 0.127 µM)
MIC90 [18]: 0.1 µg/mL (≈ 0.255 µM)
MIC90 [19]: 0.78 µg/mL (≈ 1.99 µM)
MIC90 [20]: 0.39 µg/mL (≈ 0.994 µM)
MIC90 [21]: 0.012 mμg/mL
MIC90 [22]: 0.78 µg/mL (≈ 1.99 µM)
MIC90 [23]: 0.78 µg/mL (≈ 1.99 µM)
MIC90 [24]: 0.78 µg/mL (≈ 1.99 µM)
MIC90 [25]: 0.024 µg/mL (≈ 0.0612 µM)
MIC90 [26]: 0.39 µg/mL (≈ 0.994 µM)
MIC90 [27]: 1.56 µg/mL (≈ 3.98 µM)
MIC90 [28]: 0.1 µg/mL (≈ 0.255 µM)
MIC90 [29]: 0.2 µg/mL (≈ 0.51 µM)
MIC90 [30]: 0.78 µg/mL (≈ 1.99 µM)
MIC90 [31]: 0.024 µg/mL (≈ 0.0612 µM)
MIC90 [32]: 0.05 µg/mL (≈ 0.127 µM)
MIC90 [33]: 0.2 µg/mL (≈ 0.51 µM)
MIC90 [34]: 0.1 µg/mL (≈ 0.255 µM)
MIC90 [35]: 0.39 µg/mL (≈ 0.994 µM)
MIC90 [36]: 0.78 µg/mL (≈ 1.99 µM)
